Data reported in patent US20100047227A1, “NOVEL ANTICANCER CATHEPSIN FORMULATIONS AND ANTICANCER AGENT FOR USE IN COMBINED ANTICANCER THERAPY” (priority 2006, published 2010).

Key:
TRAIL = experiment: ELISA of TRAIL in culture supernatant of ALVA-41 cells; type: cell-based, human; conditions: ALVA-41 cells treated with cathepsin E 100 μg/ml, 20 hours
Protocol: ALVA-41 cells (1×10^6 cells per a 6-cm dish) were incubated together with cathepsin E (100 μg/ml) in a non-serum culture medium Opti-MEM at 37° C. for 20 hours. The resulting culture supernatant was measured for amounts of TRAIL, FasL and TNF-α with ELSA kit in a manner as will be described briefly. A sample and a standard product (each 100 μl) were added to a microtiter plate immobilized with a monoclonal antibody to the corresponding member of the TNF family and incubated at room temperature for 2 hours. Then, the wells of the microtiter plate were washed four times with a washing buffer and 100 μl of biotin-conjugated monoclonal antibody was added to each wells of the plate, following by incubation at room temperature for 1 hour and washing the wells of the plate completely. Then, they were incubated together with 100 μl of streptoavidin-conjugated horseradish peroxidase at room temperature for 30 minutes and washed four times with a washing buffer. […] After an addition of a reaction terminating solution, the wells were measured at 450 nm with microreader.
In this experiment, the ALVA-41 cells were treated with cathepsin E (100 μg/ml) or physiological saline at 37° C. and pH 7.4 for 20 hours and measured for the amounts of TNF-α, FasL and TRAIL in the culture supernatant by ELSA. […] Apoptosis of the ALVA-41 cells was measured using the culture supernatant after immunoprecipitation. […]

soluble TRAIL trimers = experiment: immunoblot densitometry of soluble TRAIL trimer in culture supernatant; type: cell-based, human; conditions: PrE and prostate cancer cell lines treated with cathepsin E
Protocol: The SDS-PAGE and immunoblot analyses were carried out according to prior art literature (Reference #63). The protein fractioned by SDS-PAGE was migrated on nitrocellulose membrane and was blocked with 5% non-fat dried milk. Then, the nitrocellulose membrane was incubated overnight at 4° C. with a primary antibody, i.e., anti-TRAIL antibody (1/300-fold dilution), anti-TNF-α antibody (1/200-fold dilution), anti-FasL antibody (1/500-fold dilution), anti-DR4 antibody (1/500-fold dilution), anti-DR5 antibody (1/100-fold dilution), anti-DcR1 antibody (1/500-fold dilution), anti-DcR2 antibody (1/500-fold dilution), anti-osteoprotegrin (1/150-fold dilution) or anti-β-actin antibody (1/500-fold dilution). […] The resulting membrane was then washed several times and an immunocomplex was detected with a chemiluminescent reagent. The measurement for density was measured with LAS 1000 analyzer.
In this assay, the cells to be tested were incubated to a ˜80% confluent state and then together with cathepsin E (100 μg/ml) or physiological saline at 37° C. and pH 7.4 for 20 hours, followed by measurements for the cell survival rate by a colorimetric assay. […] As an alternative method, a culture medium of each cell line was immunoblot-analyzed using an anti-OPG antibody. […] Thereafter, the immunoblot was analyzed for its concentration in order to determine a quantity of a soluble TRAIL trimer. […]

With cathepsin E the “TRAIL in culture supernatant” value (TRAIL) was “apparently secreted” and the “order of increasing amounts of soluble TRAIL trimers secreted by treatment” value (soluble TRAIL trimers) was “PrE<PC-3<PPC-1<ALVA-101≦DU145<ALVA-41”.
